Here are results for one molecule from ChEMBL document CHEMBL1155237, “Selective inhibitors of the mutant B-Raf pathway: discovery of a potent and orally bioavailable aminoisoquinoline” (J Med Chem, 2009).

In data set [1] the target is Tyrosine-protein kinase ABL2 (Homo sapiens) (UniProt P42684). Put plainly: Inhibition of ABL2 assessed as enzyme activity at 1 uM relative to untreated control. Details: scale not given: the % may be the effect or the level left.
The target in data set [2] is Tyrosine-protein kinase receptor UFO (Homo sapiens) (UniProt P30530). Put plainly: Inhibition of AXL assessed as enzyme activity at 1 uM relative to untreated control. Details: scale not given: the % may be the effect or the level left.
Tyrosine-protein kinase receptor UFO (Homo sapiens), sequence (P30530 whole entry): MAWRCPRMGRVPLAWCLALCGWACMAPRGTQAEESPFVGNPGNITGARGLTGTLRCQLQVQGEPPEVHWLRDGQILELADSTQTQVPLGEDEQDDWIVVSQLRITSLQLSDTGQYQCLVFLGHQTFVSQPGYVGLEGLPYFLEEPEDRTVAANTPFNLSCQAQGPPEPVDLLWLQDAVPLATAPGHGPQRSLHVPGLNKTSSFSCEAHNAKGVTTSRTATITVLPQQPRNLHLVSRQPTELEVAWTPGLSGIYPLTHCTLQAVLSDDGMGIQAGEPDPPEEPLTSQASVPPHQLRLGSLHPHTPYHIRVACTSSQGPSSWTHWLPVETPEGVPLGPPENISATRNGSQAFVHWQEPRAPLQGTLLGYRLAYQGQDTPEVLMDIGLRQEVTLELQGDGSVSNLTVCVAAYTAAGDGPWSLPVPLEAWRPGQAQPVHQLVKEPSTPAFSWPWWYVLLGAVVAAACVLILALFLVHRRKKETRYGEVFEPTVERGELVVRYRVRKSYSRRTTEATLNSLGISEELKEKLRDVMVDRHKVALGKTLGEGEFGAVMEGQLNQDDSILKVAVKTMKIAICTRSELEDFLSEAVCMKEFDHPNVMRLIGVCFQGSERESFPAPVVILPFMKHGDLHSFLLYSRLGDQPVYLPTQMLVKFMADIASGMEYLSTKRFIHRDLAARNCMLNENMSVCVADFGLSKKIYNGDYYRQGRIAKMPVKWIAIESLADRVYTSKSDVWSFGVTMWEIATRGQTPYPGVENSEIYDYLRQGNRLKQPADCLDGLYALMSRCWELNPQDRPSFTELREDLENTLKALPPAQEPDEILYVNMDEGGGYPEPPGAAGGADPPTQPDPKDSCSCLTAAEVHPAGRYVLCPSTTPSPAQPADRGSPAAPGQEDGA
Data set [3] deals with Macrophage colony-stimulating factor 1 receptor (Homo sapiens) (UniProt P07333). Put plainly: Inhibition of CSF1R assessed as enzyme activity at 1 uM relative to untreated control. Details: scale not given: the % may be the effect or the level left.
Macrophage colony-stimulating factor 1 receptor (Homo sapiens), sequence (P07333 whole entry): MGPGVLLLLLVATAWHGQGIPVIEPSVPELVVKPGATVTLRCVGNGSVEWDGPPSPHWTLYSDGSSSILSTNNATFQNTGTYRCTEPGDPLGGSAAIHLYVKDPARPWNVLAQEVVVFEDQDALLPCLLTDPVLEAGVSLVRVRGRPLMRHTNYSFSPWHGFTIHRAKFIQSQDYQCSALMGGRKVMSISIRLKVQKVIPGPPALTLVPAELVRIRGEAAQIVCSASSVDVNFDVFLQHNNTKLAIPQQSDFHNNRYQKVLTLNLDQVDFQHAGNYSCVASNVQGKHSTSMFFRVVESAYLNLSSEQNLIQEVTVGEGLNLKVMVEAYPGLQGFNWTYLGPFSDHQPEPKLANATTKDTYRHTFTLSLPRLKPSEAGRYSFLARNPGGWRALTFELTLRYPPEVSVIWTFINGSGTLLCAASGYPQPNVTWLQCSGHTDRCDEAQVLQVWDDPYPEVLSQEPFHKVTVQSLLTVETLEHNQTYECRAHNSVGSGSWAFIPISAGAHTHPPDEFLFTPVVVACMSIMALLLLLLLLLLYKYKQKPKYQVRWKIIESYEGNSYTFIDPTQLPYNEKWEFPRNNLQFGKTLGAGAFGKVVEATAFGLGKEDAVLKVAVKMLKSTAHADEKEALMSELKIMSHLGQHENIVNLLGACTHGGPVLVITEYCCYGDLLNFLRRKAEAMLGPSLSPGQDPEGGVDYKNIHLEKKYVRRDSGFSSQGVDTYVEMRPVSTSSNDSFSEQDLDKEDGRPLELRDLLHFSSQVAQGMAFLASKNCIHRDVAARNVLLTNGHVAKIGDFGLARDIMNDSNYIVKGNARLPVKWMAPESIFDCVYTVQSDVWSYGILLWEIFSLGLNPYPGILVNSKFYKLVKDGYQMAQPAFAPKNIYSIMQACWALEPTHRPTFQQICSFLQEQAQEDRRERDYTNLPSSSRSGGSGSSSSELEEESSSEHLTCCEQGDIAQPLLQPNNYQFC
Data set [4] concerns the target Tyrosine-protein kinase Mer (Homo sapiens) (UniProt Q12866). Briefly: Inhibition of MERTK assessed as enzyme activity at 1 uM relative to untreated control. The arrangement: scale not given: the % may be the effect or the level left.
Data set [5] addresses Serine/threonine-protein kinase TNNI3K (Homo sapiens) (UniProt Q59H18). Briefly: Inhibition of TNNI3K assessed as enzyme activity at 1 uM relative to untreated control. The arrangement: scale not given: the % may be the effect or the level left.
The target in data set [6] is Death-associated protein kinase 1 (Homo sapiens) (UniProt P53355). Put plainly: Inhibition of DAPK1 assessed as enzyme activity at 1 uM relative to untreated control. Details: scale not given: the % may be the effect or the level left.
Data set [7] relates to Epidermal growth factor receptor (Homo sapiens), P00533 [L861Q]. Briefly: Inhibition of EGFR L861Q mutant assessed as enzyme activity at 1 uM relative to untreated control. Details: scale not given: the % may be the effect or the level left. Format: protein assay.
The target of data set [8] is Cyclin-dependent kinase 2 (Homo sapiens) (UniProt P24941). Put plainly: Inhibition of CDK2 assessed as enzyme activity at 1 uM relative to untreated control. Details: scale not given: the % may be the effect or the level left.
For data set [9], the target named is Cyclin-dependent kinase 8 (Homo sapiens) (UniProt P49336). Put plainly: Inhibition of CDK8 assessed as enzyme activity at 1 uM relative to untreated control. Details: scale not given: the % may be the effect or the level left.
Cyclin-dependent kinase 8 (Homo sapiens), sequence (P49336 whole entry): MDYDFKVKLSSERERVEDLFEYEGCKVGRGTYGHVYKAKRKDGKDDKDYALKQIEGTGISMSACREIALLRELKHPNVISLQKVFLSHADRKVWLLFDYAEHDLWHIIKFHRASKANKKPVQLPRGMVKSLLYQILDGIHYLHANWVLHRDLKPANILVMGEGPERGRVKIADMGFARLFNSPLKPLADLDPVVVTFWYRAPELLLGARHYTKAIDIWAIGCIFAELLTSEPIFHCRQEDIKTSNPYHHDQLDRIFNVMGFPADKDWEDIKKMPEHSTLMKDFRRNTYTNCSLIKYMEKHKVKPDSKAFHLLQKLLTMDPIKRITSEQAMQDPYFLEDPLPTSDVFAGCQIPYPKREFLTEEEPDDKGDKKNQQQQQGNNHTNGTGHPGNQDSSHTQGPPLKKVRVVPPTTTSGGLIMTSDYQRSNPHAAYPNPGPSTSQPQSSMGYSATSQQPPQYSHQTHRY
A short description of data set [10]: Volume of distribution at steady state in CD1 mouse. Format: ADME, organism-based. Conditions: in vivo, read-out: Vdss.
Data set [11] concerns Tyrosine-protein kinase ABL1 (Homo sapiens), P00519 [E255K]. Briefly: Inhibition of ABL1 E255K mutant assessed as enzyme activity at 1 uM relative to untreated control. The arrangement: scale not given: the % may be the effect or the level left.
Tyrosine-protein kinase ABL1 (Homo sapiens), P00519 [E255K], sequence (P00519 whole entry E255K): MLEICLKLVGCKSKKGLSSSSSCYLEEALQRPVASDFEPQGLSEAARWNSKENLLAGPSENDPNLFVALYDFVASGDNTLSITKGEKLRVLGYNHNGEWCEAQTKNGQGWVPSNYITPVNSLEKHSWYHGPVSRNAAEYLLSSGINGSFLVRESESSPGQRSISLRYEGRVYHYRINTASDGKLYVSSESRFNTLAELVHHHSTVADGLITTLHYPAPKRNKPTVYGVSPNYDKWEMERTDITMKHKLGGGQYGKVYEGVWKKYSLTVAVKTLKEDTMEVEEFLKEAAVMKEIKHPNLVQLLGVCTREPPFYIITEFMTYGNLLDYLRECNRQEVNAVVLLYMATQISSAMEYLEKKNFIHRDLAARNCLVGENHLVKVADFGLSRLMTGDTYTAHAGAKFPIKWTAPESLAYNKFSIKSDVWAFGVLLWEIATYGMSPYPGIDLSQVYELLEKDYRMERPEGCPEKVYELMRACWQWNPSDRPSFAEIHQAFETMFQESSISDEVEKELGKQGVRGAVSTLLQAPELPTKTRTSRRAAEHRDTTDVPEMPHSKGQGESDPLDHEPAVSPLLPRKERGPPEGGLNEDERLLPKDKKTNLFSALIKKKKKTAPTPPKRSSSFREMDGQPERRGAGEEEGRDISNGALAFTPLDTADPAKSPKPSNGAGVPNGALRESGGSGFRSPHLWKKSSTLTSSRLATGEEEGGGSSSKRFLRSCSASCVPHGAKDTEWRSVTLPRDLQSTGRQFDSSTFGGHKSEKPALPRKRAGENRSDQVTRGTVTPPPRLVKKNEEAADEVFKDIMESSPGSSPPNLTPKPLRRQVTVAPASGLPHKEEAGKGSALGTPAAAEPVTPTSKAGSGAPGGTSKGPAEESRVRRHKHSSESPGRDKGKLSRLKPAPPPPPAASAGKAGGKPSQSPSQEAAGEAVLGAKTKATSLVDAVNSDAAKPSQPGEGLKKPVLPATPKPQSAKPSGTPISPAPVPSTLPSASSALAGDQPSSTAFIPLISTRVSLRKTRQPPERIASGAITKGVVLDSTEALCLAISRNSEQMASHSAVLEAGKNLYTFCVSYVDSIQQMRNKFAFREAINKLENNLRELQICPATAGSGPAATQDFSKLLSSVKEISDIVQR
In data set [12] the target is Activin receptor type-1 (Homo sapiens) (UniProt Q04771). Briefly: Inhibition of ACVR1 assessed as enzyme activity at 1 uM relative to untreated control. The arrangement: scale not given: the % may be the effect or the level left.
Activin receptor type-1 (Homo sapiens), sequence (Q04771 whole entry): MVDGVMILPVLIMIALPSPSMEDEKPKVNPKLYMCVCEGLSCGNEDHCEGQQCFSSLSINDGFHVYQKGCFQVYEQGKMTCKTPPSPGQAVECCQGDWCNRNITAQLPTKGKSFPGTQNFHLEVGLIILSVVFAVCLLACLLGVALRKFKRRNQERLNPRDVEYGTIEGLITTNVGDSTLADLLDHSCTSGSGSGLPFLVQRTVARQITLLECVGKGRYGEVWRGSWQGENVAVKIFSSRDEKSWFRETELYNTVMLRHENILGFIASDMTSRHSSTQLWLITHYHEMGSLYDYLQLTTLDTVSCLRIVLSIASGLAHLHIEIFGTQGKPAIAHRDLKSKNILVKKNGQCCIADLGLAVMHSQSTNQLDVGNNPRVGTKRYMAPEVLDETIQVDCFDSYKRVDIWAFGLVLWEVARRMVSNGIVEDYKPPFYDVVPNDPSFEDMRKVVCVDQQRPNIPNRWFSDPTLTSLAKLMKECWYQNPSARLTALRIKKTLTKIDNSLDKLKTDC

Serine/threonine-protein kinase TNNI3K (Homo sapiens), sequence (Q59H18 whole entry): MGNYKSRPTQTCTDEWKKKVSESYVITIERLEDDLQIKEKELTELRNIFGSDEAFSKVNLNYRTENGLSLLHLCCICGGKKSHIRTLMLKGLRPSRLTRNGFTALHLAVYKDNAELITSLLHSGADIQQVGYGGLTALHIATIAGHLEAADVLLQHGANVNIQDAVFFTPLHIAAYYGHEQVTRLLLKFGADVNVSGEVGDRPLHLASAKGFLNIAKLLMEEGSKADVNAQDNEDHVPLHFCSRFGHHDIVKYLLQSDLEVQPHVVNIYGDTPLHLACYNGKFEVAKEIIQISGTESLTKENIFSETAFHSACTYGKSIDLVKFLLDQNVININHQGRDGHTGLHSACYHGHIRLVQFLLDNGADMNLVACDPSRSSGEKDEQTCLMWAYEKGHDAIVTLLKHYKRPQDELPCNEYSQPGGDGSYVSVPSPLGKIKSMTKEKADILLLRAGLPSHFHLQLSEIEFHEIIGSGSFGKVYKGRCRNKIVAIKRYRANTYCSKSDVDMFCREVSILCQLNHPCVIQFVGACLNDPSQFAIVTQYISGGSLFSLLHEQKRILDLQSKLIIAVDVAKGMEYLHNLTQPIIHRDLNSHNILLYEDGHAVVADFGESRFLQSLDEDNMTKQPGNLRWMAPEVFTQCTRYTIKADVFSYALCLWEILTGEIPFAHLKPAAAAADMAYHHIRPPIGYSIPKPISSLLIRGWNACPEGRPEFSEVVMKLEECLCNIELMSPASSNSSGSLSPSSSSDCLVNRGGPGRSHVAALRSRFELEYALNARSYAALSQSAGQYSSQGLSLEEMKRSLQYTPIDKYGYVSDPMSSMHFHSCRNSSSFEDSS

For `Cc1ccc2c(Nc3ccc(Cl)cc3)nccc2c1Nc1ncccc1-c1ncnc2[nH]cnc12.Cl.Cl.Cl`, the Activity in data set [1] turned out to be 42%; in data set [2], 95%; in data set [3] it was 0.25%; in data set [4], 99%; in data set [5], 21%; in [6], 90%. For the same molecule, the Activity in data set [7] was 86%; in data set [8], 100%; in data set [9], 100%; in data set [11], 80%; in [12] it was 100%. In addition, the Vd in data set [10] was determined as 1.1 L/kg.
